Earlier results, collected in patent publication US20090041835A1, “METHOD OF INHIBITING LEAKAGE OF DRUG ENCAPSULATED IN LIPOSOMES” (KYOWA HAKKO KOGYO CO., LTD., priority 1999, published 2009).

Conditions: LUVs of 190 nm average particle size, pH gradient using ammonium sulfate; 50% mouse serum at 37° C.

O=C(O)c1cn(C2CC2)c2cc(N3CCNCC3)c(F)cc2c1=O [ciprofloxacin]
leakage of drug out of the LUVs: rapidly leaked out
